Assays:
Assay in all cases: relative viability (nuclei count vs DMSO), 5 days (fraction); higher = more cells survive
[1] = compound: COC1=CC(c2cc3ccccc3[nH]2)=N/C1=C\c1[nH]c(C)cc1C [Obatoclax] + CS(=O)(=O)N1CCN(Cc2cc3nc(-c4cccc5[nH]ncc45)nc(N4CCOCC4)c3s2)CC1 [Pictilisib] (partner 1 µM)
In short: (§1)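 Dosing by pin tool came one day after lung cancer cell lines were seeded in 1536-well plates, using either one drug or a fixed anchor-drug dose plus five library-drug doses (not always all listed) in √10 steps. After 5 days, nuclei were counted on 4× images. Relative viability is treated-well nuclei count divided by vehicle-well nuclei count, and values are medians of duplicate plates.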

[2] = compound: CC(C)C[C@H](NC(=O)[C@H](Cc1ccccc1)NC(=O)c1cnccn1)B(O)O [Bortezomib] + O=C(CCCCCCC(=O)Nc1ccccc1)NO [Vorinostat] (partner 1 µM)
In short: as §1

[3] = compound: CC1=CC(=NN1)NC2=CC(=NC(=N2)/C=C/C3=CC=CC=C3)N4CCN(CC4)C + CS(=O)(=O)CCNCc1ccc(-c2ccc3ncnc(Nc4ccc(OCc5cccc(F)c5)c(Cl)c4)c3c2)o1 [Lapatinib] (partner 2 µM)
In short: as §1

[4] = compound: CC(C)C[C@H](NC(=O)[C@H](Cc1ccccc1)NC(=O)c1cnccn1)B(O)O [Bortezomib] + COc1cccc2cc(-c3nc([C@H]4CC[C@H](C(=O)O)CC4)n4ncnc(N)c34)[nH]c12 [OSI-027] (partner 0.5 µM)
In short: as §1

Cell Line	relative viability ([1]; first compound 0.01 µM)	relative viability ([1]; first compound 0.03162 µM)	relative viability ([1]; first compound 0.3162 µM)	relative viability ([1]; first compound 1 µM)	relative viability ([2]; first compound 0.0002 µM)	relative viability ([2]; first compound 0.000632 µM)	relative viability ([2]; first compound 0.002 µM)	relative viability ([2]; first compound 0.006325 µM)	relative viability ([2]; first compound 0.02 µM)	relative viability ([3]; first compound 0.08 µM)	relative viability ([3]; first compound 0.253 µM)	relative viability ([3]; first compound 0.8 µM)	relative viability ([3]; first compound 2.53 µM)	relative viability ([3]; first compound 8 µM)	relative viability ([4]; first compound 0.0002 µM)	relative viability ([4]; first compound 0.000632 µM)	relative viability ([4]; first compound 0.002 µM)	relative viability ([4]; first compound 0.006325 µM)	relative viability ([4]; first compound 0.02 µM)	relative viability ([1]; first compound 0.1 µM)
NCI-H1734	0.466	0.457	0.361	0.229	0.832	0.845	0.635	0.115	0.0944	0.968	1.06	0.958	0.577	0.145	0.635	0.452	0.541	0.164	0.133	
NCI-H1395	0.815	0.488	0.811	0.519	0.762	0.547	0.515	0.301	0.306	1.22	1.03	0.932	0.456	0.275	0.574	0.529	0.639	0.353	0.271	0.485
HOP-62	0.649	0.803	0.761	0.757	0.589	0.654	0.6	0.131	0.0601	1.06	0.973	0.956	0.558	0.307	0.981	0.914	0.691	0.149	0.0803	0.449
LK-2	0.566	0.639	0.502	0.581	0.401	0.416	0.323	0.173	0.195	0.885	0.852	0.852	0.604	0.181	0.223	0.174	0.175	0.175	0.177	0.655
SW 1573	0.466	0.539	0.44	0.519	0.676	1.02	0.313	0.0435	0.0242	1.08	1.34	1.11	0.906	0.134	0.658	0.665	0.234	0.0635	0.0625	0.506
SK-LU-1	0.616	0.559	0.364	0.256	0.733	0.84	0.314	0.178	0.186	0.861	0.959	0.699	0.386	0.116	0.336	0.286	0.319	0.125	0.122	0.46
NCI-H23	0.43	0.442	0.4	0.197	0.603		0.495	0.132	0.0977	0.981	1.37	1	0.46	0.139	0.579	0.335	0.542	0.282	0.138	0.57
NCI-H1355	0.405	0.412	0.384	0.327	0.632	0.657	0.696	0.416	0.121	1.11	1.03	0.944	0.645	0.422	0.386	0.356	0.44	0.22	0.163	0.406

Reference: the supplement of paper PMC10307832
